Reference: the supplement of paper PMC11061612

Tests used:
[1] = tested on: HOS (Osteosarcoma); assay: combination Emax (second highest fraction inhibited in the dose matrix, 72 h); higher = more inhibition; extreme values may be limits of the assay
Summary of the method: (§1)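 After 24 hours at 37°C and 5% CO2 in 1536-well plates, cells in DMEM/F12 or RPMI plus 10% FBS received two-drug dose matrices for 72 hours. Viability came from CellTiter-Glo 2.0 luminescence and was scaled as inhibition, anchored at 0 by vehicle wells and at 1 by blank wells. Combination Emax is taken as the second-highest inhibition in the matrix, and Bliss excess as the observed combination effect less EA + EB − EA·EB, with EA and EB the single-agent effects.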

[2] = tested on: KYSE-520 (Esophageal Squamous Cell Carcinoma); assay: as above
Summary of the method: as §1

[3] = tested on: HT-1376 (Bladder Carcinoma); assay: as above
Summary of the method: as §1

[4] = tested on: CaR-1 (Colorectal Carcinoma); assay: as above
Summary of the method: as §1

[5] = tested on: NCI-H82 (Small Cell Lung Carcinoma); assay: as above
Summary of the method: as §1

[6] = tested on: SK-ES-1 (Ewing's Sarcoma); assay: as above
Summary of the method: as §1

[7] = tested on: NOS-1 (Osteosarcoma); assay: Bliss excess, mean over the matrix (fraction); higher = more synergy
Summary of the method: as §1

[8] = tested on: OVCA420 (Ovarian Carcinoma); assay: as above
Summary of the method: as §1

[9] = tested on: RC-K8 (B-Cell Non-Hodgkin's Lymphoma); assay: as above
Summary of the method: as §1

[10] = tested on: NB10 (Neuroblastoma); assay: as above
Summary of the method: as §1

[11] = tested on: ME-1 (Acute Myeloid Leukemia); assay: as above
Summary of the method: as §1

[12] = tested on: DoTc2-4510 (Cervical Carcinoma); assay: as above
Summary of the method: as §1

[13] = tested on: LB831-BLC (Bladder Carcinoma); assay: as above
Summary of the method: as §1

[14] = tested on: RO82-W-1 (Thyroid Gland Carcinoma); assay: as above
Summary of the method: as §1

[15] = tested on: T98G (Glioblastoma); assay: as above
Summary of the method: as §1

[16] = tested on: LU-135 (Small Cell Lung Carcinoma); assay: as above
Summary of the method: as §1

[17] = tested on: Hs-578-T (Breast Carcinoma); assay: as above
Summary of the method: as §1

[18] = tested on: DEL (T-Cell Non-Hodgkin's Lymphoma); assay: as above
Summary of the method: as §1

[19] = tested on: KELLY (Neuroblastoma); assay: as above
Summary of the method: as §1

[20] = tested on: KURAMOCHI (Ovarian Carcinoma); assay: as above
Summary of the method: as §1
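Wherever Bliss excess, mean over the matrix is given: after 72 h of two-drug dosing.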

| SMILES | combination Emax [1] | combination Emax [2] | combination Emax [3] | combination Emax [4] | combination Emax [5] | combination Emax [6] | Bliss excess [7] | Bliss excess [8] | Bliss excess [9] | Bliss excess [10] | Bliss excess [11] | Bliss excess [12] | Bliss excess [13] | Bliss excess [14] | Bliss excess [15] | Bliss excess [16] | Bliss excess [17] | Bliss excess [18] | Bliss excess [19] | Bliss excess [20] |
| --- | --- | --- | --- | --- | --- | --- | --- | --- | --- | --- | --- | --- | --- | --- | --- | --- | --- | --- | --- | --- |
| COc1nnc2ccc(N3CCC(c4ccc(OCCN5CCN(C)C(=O)[C@H]5C)cc4)CC3)nn12 [AZD5153] + Cn1cnc2c(F)c(Nc3ccc(Br)cc3Cl)c(C(=O)NOCCO)cc21 [Selumetinib] (first compound max 1 µM, 7x7, partner max 10 µM) | 0.544 | 0.691 | 0.26 | 0.619 | 0.378 | 0.579 | 0.066 | 0.0303 | -0.048 | -0.0687 | -0.0302 | -0.0002 | -0.0446 | 0.038 | 0.0403 | -0.0138 | -0.0344 | -0.0896 | 0.13 | -0.0242 |
| Cc1c2c(nn1C)CSCc1cc(n(C)n1)CSc1cc(c3ccccc3c1)OCCCc1c(C(=O)O)n(C)c3c-2c(Cl)ccc13 [AZD5991] + C1CN(CCC1(C(=O)N[C@@H](CCO)C2=CC=C(C=C2)Cl)N)C3=NC=NC4=C3C=CN4 [Capivasertib] (first compound max 1 µM, 7x7, partner max 3 µM) | 0.242 | 0.433 | 0.146 | 0.223 | 0.976 | 0.854 | 0.0511 | 0.0186 | -0.03 | -0.0316 | 0.0415 | 0.0544 | 0.0133 | -0.016 | -0.0178 | -0.0112 | -0.0866 | -0.012 | 0.0246 | 0.0205 |
| Cc1c2c(nn1C)CSCc1cc(n(C)n1)CSc1cc(c3ccccc3c1)OCCCc1c(C(=O)O)n(C)c3c-2c(Cl)ccc13 [AZD5991] + CC1(C)CCC(CN2CCN(c3ccc(C(=O)NS(=O)(=O)c4ccc(NCC5CCOCC5)c([N+](=O)[O-])c4)c(Oc4cnc5[nH]ccc5c4)c3)CC2)=C(c2ccc(Cl)cc2)C1 [Venetoclax] (first compound max 1 µM, 7x7, partner max 1 µM) | 0.509 | 0.183 | 0.142 | 0.144 | 0.914 | 1 | 0.0241 | -0.0045 | -0.0142 | 0.0065 | 0.0654 | 0.0024 | -0.0229 | -0.0523 | 0.0004 | 0.0178 | -0.0513 | 0.0081 | 0.249 | 0.0511 |
| Cc1c2c(nn1C)CSCc1cc(n(C)n1)CSc1cc(c3ccccc3c1)OCCCc1c(C(=O)O)n(C)c3c-2c(Cl)ccc13 [AZD5991] + CCN(CCO)CCCOc1ccc2c(Nc3cc(CC(=O)Nc4cccc(F)c4)[nH]n3)ncnc2c1 [AZD2811] (first compound max 1 µM, 7x7, partner max 1 µM) | 0.238 | 0.283 | 0.243 | 0.338 | 0.972 | 1 | -0.0222 | -0.0245 | 0.09 | 0.0335 | 0.0139 | 0.0509 | 0.0076 | -0.0642 | -0.0339 | 0.0109 | 0.0487 | -0.0295 | 0.0071 | -0.0046 |
| Cc1c2c(nn1C)CSCc1cc(n(C)n1)CSc1cc(c3ccccc3c1)OCCCc1c(C(=O)O)n(C)c3c-2c(Cl)ccc13 [AZD5991] + CN(C)CCCOc1ccc(-c2ccc3ncc4c(c3c2)n(C2CCOCC2)c(=O)n4C)cn1 [AZD0156] (first compound max 1 µM, 7x7, partner max 1 µM) | 0.278 | 0.23 | 0.196 | 0.186 | 0.941 | 0.817 | -0.0581 | -0.0333 | 0.0237 | 0.0269 | 0.0237 | 0.0422 | 0.0072 | 0.0257 | 0.008 | -0.0413 | 0.0816 | -0.0174 | -0.0469 | -0.0666 |
| Cc1c2c(nn1C)CSCc1cc(n(C)n1)CSc1cc(c3ccccc3c1)OCCCc1c(C(=O)O)n(C)c3c-2c(Cl)ccc13 [AZD5991] + C[C@@H]1COCCN1C2=NC(=NC(=C2)C3(CC3)[S@](=N)(=O)C)C4=C5C=CNC5=NC=C4 [AZD6738] (first compound max 1 µM, 7x7, partner max 10 µM) | 0.789 | 0.583 | 0.455 | 0.362 | 0.99 | 1 | 0.0854 | 0.0076 | 0.0114 | 0.0339 | 0.0454 | -0.0327 | 0.0641 | -0.0303 | -0.0069 | 0.0274 | -0.0254 | 0.004 | 0.0647 | 0.0587 |
| Cc1c2c(nn1C)CSCc1cc(n(C)n1)CSc1cc(c3ccccc3c1)OCCCc1c(C(=O)O)n(C)c3c-2c(Cl)ccc13 [AZD5991] + C[C@@H](Nc1cc(F)cc(F)c1)c1cc(C(=O)N(C)C)cc2c(=O)cc(N3CCOCC3)oc12 [AZD8186] (first compound max 1 µM, 7x7, partner max 3 µM) | 0.174 | 0.412 | 0.225 | 0.174 | 0.905 | 0.866 | 0.023 | -0.0274 | -0.0418 | -0.0444 | -0.037 | 0.0486 | 0.0352 | 0.0066 | -0.001 | 0.0307 | -0.126 | 0.0058 | 0.0259 | 0.039 |
